Data from ChEMBL document CHEMBL5523693, “Exploration of the P1 residue in 3CL protease inhibitors leading to the discovery of a 2-tetrahydrofuran P1 replacement” (Bioorg Med Chem, 2024).
pIC50, pKi: −log10 of the molar value. Where a SMILES comes first, the peptide text is derived from it. [ ]: non-standard residue; d: D form. The star is where a group is joined. Phe(4-F) = N[C@@H](Cc1ccc(F)cc1)C(=O)O; Cbz = O=C(OCc1ccccc1)*

Legend:
[1] = molecular target: Replicase polyprotein 1ab (Severe acute respiratory syndrome coronavirus 2, UniProt P0DTD1); experiment: Inhibition of SARS-CoV-2 3CL protease by FRET assay
[2] = molecular target: Replicase polyprotein 1ab (Severe acute respiratory syndrome coronavirus 2) (UniProt P0DTD1); experiment: Binding affinity to SARS-CoV-2 3CL protease assessed as monophasic dissociation rate by measuring half life by jump dilution assay
cells = conditions: Betacoronavirus 1, MRC5, read-out: pEC50 (converted)
Description: Antiviral activity against SARS-CoV-2 OC43 infected in human MRC5 cells assessed as inhibition of bacterial growth

SARS-CoV-2 = experiment: microbe, parasite or virus in culture; conditions: Severe acute respiratory syndrome coronavirus 2, Vero, read-out: pEC50 (converted)
Description: Antiviral activity against SARS-CoV-2 infected in african green monkey Vero cells assessed as virus-induced cell death

[3] = Cytotoxicity against human MRC5 cells infected with […] inhibition of cell growth; type: toxicity, cell-based
[4] = Permeability of compound in MDCK cells; type: ADME, cell-based, Canis lupus familiaris; conditions: dog, read-out: permeability
[5] = molecular target: Replicase polyprotein 1ab (Severe acute respiratory syndrome coronavirus 2) (UniProt P0DTD1); experiment: Binding affinity to SARS-CoV-2 3CL protease assessed as biphasic dissociation rate by measuring half life by jump dilution assay

CC(C)C[C@H](NC(=O)[C@H](Cc1ccc(F)cc1)NC(=O)OCc1ccccc1)C(=O)NC(CC1CCCO1)C(=O)C(=O)NC(C)C (mixture of isomers)
pIC50 [1]: 6.70
T1/2 [2]: 12 min

CC(C)C[C@H](NC(=O)[C@H](Cc1ccc(F)cc1)NC(=O)OCc1ccccc1)C(=O)NC(C=O)C[C@@H]1CCNC1=O (mixture of isomers)
EC50 (cells): 3160 nM
EC50 (SARS-CoV-2): 1000 nM
CC50 [3]: > 50100 nM
Papp [4]: 1.62 ×10⁻⁶ cm/s
pIC50 [1]: 9.40
T1/2 [5]: 840 min

CC(C)C[C@H](NC(=O)[C@H](Cc1ccc(F)cc1)NC(=O)OCc1ccccc1)C(=O)N[C@@H](C[C@@H]1CCNC1=O)C(=O)C(=O)NC(C)C
pIC50 [1]: 8.30
pKi [1]: 8.30
T1/2 [2]: 18 min

CC(C)C[C@H](NC(=O)[C@H](Cc1ccc(F)cc1)NC(=O)OCc1ccccc1)C(=O)NC(C=O)CC1CCCO1 (mixture of isomers)
EC50 (cells): 316 nM
EC50 (SARS-CoV-2): 2510 nM
CC50 [3]: 10000 nM
Papp [4]: 9.56 ×10⁻⁶ cm/s
pIC50 [1]: 8.90
T1/2 [5]: 660 min

CC(C)C[C@H](NC(=O)[C@H](Cc1ccc(F)cc1)NC(=O)OCc1ccccc1)C(=O)NC(C=O)Cc1ccccc1F (mixture of isomers)
EC50 (cells): 398 nM
EC50 (SARS-CoV-2): 1580 nM
CC50 [3]: 1260 nM
Papp [4]: 5.27 ×10⁻⁶ cm/s
pIC50 [1]: 8.50
T1/2 [5]: 414 min

CC(C)C[C@H](NC(=O)[C@H](Cc1ccc(F)cc1)NC(=O)OCc1ccccc1)C(=O)NC(C=O)CC(F)(F)F (mixture of isomers)
EC50 (cells): > 1260 nM
EC50 (SARS-CoV-2): 631 nM
CC50 [3]: 1260 nM
pIC50 [1]: < 6.00

CC(C)C[C@H](NC(=O)[C@H](Cc1ccc(F)cc1)NC(=O)OCc1ccccc1)C(=O)NC(C=O)Cc1c[nH]cn1 (mixture of isomers)
EC50 (cells): 25100 nM
EC50 (SARS-CoV-2): 3980 nM
CC50 [3]: > 50100 nM
pIC50 [1]: 7.80
T1/2 [2]: < 12 min

CC(C)C[C@H](NC(=O)[C@H](Cc1ccc(F)cc1)NC(=O)OCc1ccccc1)C(=O)NC(C=O)CC1CCCC1 (mixture of isomers)
EC50 (cells): 1000 nM
CC50 [3]: 10000 nM
pIC50 [1]: 7.10
T1/2 [2]: < 12 min

CC(C)C[C@H](NC(=O)[C@H](Cc1ccc(F)cc1)NC(=O)OCc1ccccc1)C(=O)N[C@@H](/C=C1\CCOC1=O)C[C@@H]1CCCO1
pIC50 [1]: < 6.00

CC(C)C[C@H](NC(=O)[C@H](Cc1ccc(F)cc1)NC(=O)OCc1ccccc1)C(=O)NC(C=O)CC1CCCCO1 (mixture of isomers)
EC50 (SARS-CoV-2): 2000 nM
CC50 [3]: > 50100 nM
pIC50 [1]: 7.40
T1/2 [2]: 18 min

CC(C)C[C@H](NC(=O)[C@H](Cc1ccc(F)cc1)NC(=O)OCc1ccccc1)C(=O)NC(C=O)Cc1cncs1 (mixture of isomers)
EC50 (cells): > 50100 nM
CC50 [3]: 2000 nM
pIC50 [1]: < 6.00

CC(C)C[C@H](NC(=O)[C@H](Cc1ccc(F)cc1)NC(=O)OCc1ccccc1)C(=O)NC(C=O)Cc1ccccn1 (mixture of isomers)
EC50 (cells): 1580 nM
CC50 [3]: 10000 nM
pIC50 [1]: 7.90
T1/2 [2]: 18 min

CC(C)C[C@H](NC(=O)[C@H](Cc1ccc(F)cc1)NC(=O)OCc1ccccc1)C(=O)NC(C=O)Cc1ccc(F)cc1 (mixture of isomers)
EC50 (cells): > 1260 nM
EC50 (SARS-CoV-2): 2000 nM
CC50 [3]: 1260 nM
pIC50 [1]: 6.10
T1/2 [2]: < 12 min

CC(C)C[C@H](NC(=O)[C@H](Cc1ccc(F)cc1)NC(=O)OCc1ccccc1)C(=O)NC(/C=C1\CCOC1=O)CC1CCCO1 (mixture of isomers)
pIC50 [1]: 6.80
T1/2 [2]: 18 min

CC(C)C[C@H](NC(=O)[C@H](Cc1ccc(F)cc1)NC(=O)OCc1ccccc1)C(=O)NC(C=O)CCF (mixture of isomers)
EC50 (cells): > 50100 nM
EC50 (SARS-CoV-2): 1000 nM
CC50 [3]: 2000 nM
pIC50 [1]: 6.20
T1/2 [2]: < 12 min

CC(C)C[C@H](NC(=O)[C@H](Cc1ccc(F)cc1)NC(=O)OCc1ccccc1)C(=O)NC(C=O)Cc1cccnc1 (mixture of isomers)
EC50 (cells): > 10000 nM
EC50 (SARS-CoV-2): 2000 nM
CC50 [3]: 10000 nM
pIC50 [1]: < 6.00

CC(C)C[C@H](NC(=O)[C@H](Cc1ccc(F)cc1)NC(=O)OCc1ccccc1)C(=O)N[C@@H](/C=C1\CCOC1=O)C[C@H]1CCCO1
pIC50 [1]: < 6.00

CC(C)C[C@H](NC(=O)[C@H](Cc1ccc(F)cc1)NC(=O)OCc1ccccc1)C(=O)N[C@H](/C=C1\CCOC1=O)C[C@@H]1CCNC1=O
pIC50 [1]: 8.80
T1/2 [5]: 468 min

COCCC(C=O)NC(=O)[C@H](CC(C)C)NC(=O)[C@H](Cc1ccc(F)cc1)NC(=O)OCc1ccccc1 (mixture of isomers)
EC50 (cells): 1260 nM
EC50 (SARS-CoV-2): 1580 nM
CC50 [3]: 10000 nM
pIC50 [1]: 7.50
T1/2 [2]: < 12 min

CSCC[C@@H](C=O)NC(=O)[C@H](CC(C)C)NC(=O)[C@H](Cc1ccc(F)cc1)NC(=O)OCc1ccccc1 (Cbz-[Phe(4-F)]-Leu-Met-aldehyde)
EC50 (cells): 1000 nM
EC50 (SARS-CoV-2): 1260 nM
CC50 [3]: 3980 nM
pIC50 [1]: 8.20
T1/2 [2]: < 12 min

CC(C)C[C@H](NC(=O)[C@H](Cc1ccc(F)cc1)NC(=O)OCc1ccccc1)C(=O)N[C@H](/C=C1\CCOC1=O)C[C@H]1CCCO1
EC50 (SARS-CoV-2): 15800 nM
pIC50 [1]: 6.90
T1/2 [2]: 12 min

CC(C)C[C@H](NC(=O)[C@H](Cc1ccc(F)cc1)NC(=O)OCc1ccccc1)C(=O)N[C@H](C=O)CC[S+](C)[O-] (mixture of isomers)
EC50 (cells): > 50100 nM
EC50 (SARS-CoV-2): 7940 nM
CC50 [3]: > 50100 nM
pIC50 [1]: 8.10
T1/2 [5]: 660 min

CC(C)C[C@H](NC(=O)[C@H](Cc1ccc(F)cc1)NC(=O)OCc1ccccc1)C(=O)NC(C=O)Cc1cccc(F)c1 (mixture of isomers)
EC50 (cells): 794 nM
EC50 (SARS-CoV-2): 2510 nM
CC50 [3]: 794 nM
pIC50 [1]: 6.20
T1/2 [2]: < 12 min

CC(C)C[C@H](NC(=O)[C@H](Cc1ccc(F)cc1)NC(=O)OCc1ccccc1)C(=O)N[C@H](/C=C1\CCOC1=O)C[C@@H]1CCCO1
EC50 (SARS-CoV-2): 15800 nM
pIC50 [1]: 7.40
T1/2 [5]: 660 min

CC(C)C[C@H](NC(=O)[C@H](Cc1ccc(F)cc1)NC(=O)OCc1ccccc1)C(=O)NC(C=O)Cc1ccco1 (mixture of isomers)
EC50 (SARS-CoV-2): 5010 nM
pIC50 [1]: 6.90
T1/2 [2]: < 12 min

CC(C)C[C@H](NC(=O)[C@H](Cc1ccc(F)cc1)NC(=O)OCc1ccccc1)C(=O)NC(C=O)CC(F)F (mixture of isomers)
EC50 (cells): > 1580 nM
EC50 (SARS-CoV-2): 1000 nM
CC50 [3]: 1580 nM
pIC50 [1]: 6.00
T1/2 [2]: < 12 min

CC(C)C[C@H](NC(=O)[C@H](Cc1ccc(F)cc1)NC(=O)OCc1ccccc1)C(=O)NC(C=O)Cc1ccncc1 (mixture of isomers)
EC50 (cells): > 5010 nM
EC50 (SARS-CoV-2): 631 nM
CC50 [3]: 5010 nM
pIC50 [1]: < 6.00
